Data from ChEMBL document CHEMBL3639247, “Pyrazole compounds as CRTH2 antagonists” (2014).

Biological target: T1, Prostaglandin D2 receptor 2 (Homo sapiens, UniProt Q9Y5Y4)
T1 sequence (Q9Y5Y4 whole entry): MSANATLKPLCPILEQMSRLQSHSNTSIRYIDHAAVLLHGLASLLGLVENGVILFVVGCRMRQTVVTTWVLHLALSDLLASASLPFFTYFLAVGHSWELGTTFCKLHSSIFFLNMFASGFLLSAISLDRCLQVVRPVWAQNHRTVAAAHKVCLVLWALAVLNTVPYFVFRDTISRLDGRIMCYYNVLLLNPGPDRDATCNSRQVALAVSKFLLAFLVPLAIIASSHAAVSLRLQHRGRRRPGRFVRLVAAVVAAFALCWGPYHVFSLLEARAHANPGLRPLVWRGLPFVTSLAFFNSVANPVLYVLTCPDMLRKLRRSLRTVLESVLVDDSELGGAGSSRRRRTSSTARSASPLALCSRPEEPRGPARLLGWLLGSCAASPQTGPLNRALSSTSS
Experiment: Radioligand Binding Assay: The CRTH2 receptor binding assay is performed in a scintillation proximity assay (SPA) format with the radioligand [3H]-PGD2 (Perkin Elmer, NET616000MC). CHO-K1-hCRTH2 cell membranes are again homogenized by passing through a single use needle (Terumo, 23Gx1'') and diluted in SPA incubation buffer in suitable concentrations (0.5-10 ug protein/well). The SPA assay is set up in 96 well microtiter plates (Perkin Elmer, CatNo. 6005040) in SPA incubation buffer with a final volume of 200 ul per well and final concentration of 50 mM Tris-HCl, 10 mM MgCl2, 150 mM NaCl, 1 mM EDTA pH 7.4, 0.1% bovine serum albumin). The SPA assay mixture contains 60 ul of the membrane suspension, 80 ul of Wheat Germ Agglutinin coated PVT beads (GE Healthcare, RPNQ-0001, 0.3 mg/well), 40 ul of [3H]-PGD2 diluted in SPA buffer to a final concentration of 1 nM (50 000 dpm) and 20 ul of the test compound (dissolved in dimethylsulfoxid).

- Ki: 23.9 nM
Structure (SMILES): CCc1nn(Cc2ccc(NC(=O)C3CCC(C(F)(F)F)CC3)cc2)c(CC)c1CC(=O)O (stereo unspecified)
